Reference: the PolyMetriX glass transition set
± gives the standard deviation of the reports.

For *Oc1ccc(C(=O)OCCOCCOCCOCCOC(=O)c2ccc(OC(=O)c3ccc(C(*)=O)cc3)cc2)cc1 (repeat unit), the glass transition temperature was 30.00 °C. In the case of *Cc1cc(CNC(=O)c2cccc(C(=O)N*)c2)cc(C(C)(C)C)c1 (repeat unit), the glass transition temperature is reported as 188.00 °C. With *CCCCCCNC(=O)c1ccccc1-c1ccccc1C(=O)N* (repeat unit) the glass transition temperature was 122.50 °C. Compound *CC(*)C(=O)OCC(F)(F)F (repeat unit) has a glass transition temperature of 3.10 °C. *c1ccc2c(c1)C(=O)N(c1c(C)cc(C3(c4cc(C)c(N5C(=O)c6ccc(C(*)(C(F)(F)F)C(F)(F)F)cc6C5=O)c(C(C)C)c4)c4ccccc4-c4ccccc43)cc1C(C)C)C2=O (repeat unit) showed a glass transition temperature of 335.00 °C. With *O[Si](C)(C)CCC/N=C1\c2ccccc2/C(=N\CCC[Si](*)(C)C)c2c(O)ccc(O)c21 (repeat unit) the glass transition temperature was 7.50 °C. Compound *c1ccc(Oc2ccc(Oc3ccc(N4C(=O)c5ccc(-c6ccc7c(c6)C(=O)N(*)C7=O)cc5C4=O)cc3)cc2)cc1 (repeat unit) has a glass transition temperature of 278.00 ± 14 °C. In the case of *c1cccc(Oc2ccc(P(=O)(c3ccccc3)c3ccccc3)c(Oc3cccc(N4C(=O)c5ccc(Oc6ccc(-c7ccc(Oc8ccc9c(c8)C(=O)N(*)C9=O)cc7)cc6)cc5C4=O)c3)c2)c1 (repeat unit), the glass transition temperature is reported as 227.00 °C. Compound *CC(*)c1cccc(C)c1 (repeat unit) [Poly(m-methyl styrene) ] has a glass transition temperature of 95 ± 11 °C. Work on *c1ccc(C(=O)Nc2ccc(NC(=O)c3ccc(Oc4ccc(-c5nn(*)c(=O)c6ccccc56)c5ccccc45)cc3)cc2)cc1 (repeat unit) yielded a glass transition temperature of 347.50 °C. In the case of *c1ccc(Oc2ccc(-c3nc4ccc(-c5ccc6nc(*)c(-c7ccccc7)c(-c7ccccc7)c6c5)cc4c(-c4ccccc4)c3-c3ccccc3)cc2)cc1 (repeat unit), the glass transition temperature is reported as 300.00 °C. For *CC(*)(C)C(=O)OCCCCOc1ccc(OC(=O)c2ccc(OC)cc2)cc1 (repeat unit), the glass transition temperature was 57.00 °C. For *Oc1ccc(CCNC(=O)c2cccc(C(*)=O)c2)cc1 (repeat unit), the glass transition temperature was 152.00 °C. *Oc1ccc(Oc2ccc(C(=O)c3c(C(=O)c4ccc(*)cc4)c(-c4ccc(F)cc4)c(-c4ccc(F)cc4)c(-c4ccc(F)cc4)c3-c3ccc(F)cc3)cc2)cc1 (repeat unit) gave a glass transition temperature of 266.00 °C. *c1cccc(Oc2cccc(Oc3cccc(N4C(=O)C5C6C=CC(C7C(=O)N(*)C(=O)C67)C5C4=O)c3)c2)c1 (repeat unit) gave a glass transition temperature of 177.00 °C. In the case of *c1c(C)cc(C(c2cccc(C(F)(F)F)c2)c2cc(C)c(N3C(=O)c4ccc(-c5ccc6c(c5)C(=O)N(*)C6=O)cc4C3=O)c(C)c2)cc1C (repeat unit), the glass transition temperature is reported as 312.90 °C. *c1cccc(N2C(=O)C(=O)N(CCCCCCN3C(=O)C(=O)N(*)C3=O)C2=O)n1 (repeat unit) gave a glass transition temperature of 169.50 °C. In the case of *Oc1c(C)cc(C(C)(C)c2cc(C)c(ON3C(=O)c4ccc(Oc5ccc(C6(c7ccc(Oc8ccc9c(c8)C(=O)N(*)C9=O)cc7)CCC(C(C)(C)C)CC6)cc5)cc4C3=O)c(C)c2)cc1C (repeat unit), the glass transition temperature is reported as 248.00 °C. In the case of *c1cccc(-c2nc3cc(Oc4ccc5nc(-c6ccccc6)c(*)nc5c4)ccc3nc2-c2ccccc2)c1 (repeat unit), the glass transition temperature is reported as 270.00 °C. *c1cccc(OCCCCOc2cccc(N3C(=O)c4ccc(-c5cccc6c5C(=O)N(*)C6=O)cc4C3=O)c2)c1 (repeat unit) showed a glass transition temperature of 178.00 °C. For *CC(*)(C)C(=O)OCCN(CC)c1ccc(/N=N/c2nc3ccc([N+](=O)[O-])cc3s2)cc1 (repeat unit), the glass transition temperature was 140.00 °C. Work on *C(=O)Nc1ccc(Oc2ccc(C3(c4ccc(Oc5ccc(NC(=O)c6ccc7c(c6)C(=O)N(c6ccc(Oc8ccc(N9C(=O)c%10ccc(*)cc%10C9=O)cc8)cc6)C7=O)cc5)cc4)NC(=O)c4ccccc43)cc2)cc1 (repeat unit) yielded a glass transition temperature of 320.00 °C. Compound *Oc1ccc(C(C)(C)c2ccc(OC(*)=S)cc2)cc1 (repeat unit) has a glass transition temperature of 140.50 °C. For *CC(*)CC[Si](C)(C)C (repeat unit), the glass transition temperature was 132.00 °C.
